Measurements published in ChEMBL document CHEMBL1201862, “PubChem BioAssay data set” (2004).
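Briefly, cells in 96-well plates were exposed to five compound concentrations for 48 h, and endpoints were estimated by linear interpolation. GI50: concentration for 50% inhibition of growth.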 Active and inactive are the calls of the source. Rule as the data show it: active = GI50 up to about 1.1 µM and inactive = higher.

Assays:
Experiment in all cases: DTP human tumour cell line panel, 48 h
[1] = tested on: CCRF-CEM
[2] = tested on: SF-539
[3] = tested on: SK-MEL-28
[4] = tested on: MOLT-4
[5] = tested on: LOX IMVI
[6] = tested on: T47D
[7] = tested on: NCI-H226
[8] = tested on: UACC-62
[9] = tested on: SK-MEL-5
[10] = tested on: MCF7
[11] = tested on: NCI-H23
[12] = tested on: Hs-578T
[13] = tested on: SN12C
[14] = tested on: SF-268
[15] = tested on: SF-295
[16] = tested on: PC-3
[17] = tested on: COLO 205
[18] = tested on: HCT-15
[19] = tested on: SW-620
[20] = tested on: A549
[21] = tested on: OVCAR-8
[22] = tested on: SNB-19
[23] = tested on: HT-29
[24] = tested on: KM12
[25] = tested on: UO-31
[26] = tested on: NCI-H522
[27] = tested on: EKVX
[28] = tested on: HCT-116
[29] = tested on: HOP-62
[30] = tested on: RPMI-8226
[31] = tested on: BT-549
[32] = tested on: HCC 2998
[33] = tested on: SR
[34] = tested on: DU-145
[35] = tested on: K562
[36] = tested on: Malme-3M
[37] = tested on: MDA-MB-231
[38] = tested on: A498
[39] = tested on: TK-10
[40] = tested on: SNB-75
[41] = tested on: M14
[42] = tested on: HL-60
[43] = tested on: MDA-N
[44] = tested on: NCI-H460
[45] = tested on: ACHN
[46] = tested on: CAKI-1
[47] = tested on: UACC-257
[48] = tested on: IGROV-1
[49] = tested on: MDA-MB-435
[50] = tested on: SK-OV-3
[51] = tested on: 786-0
[52] = tested on: OVCAR-5
[53] = tested on: OVCAR-3
[54] = tested on: U-251
[55] = tested on: OVCAR-4
[56] = tested on: RXF 393
[57] = tested on: SK-MEL-2

SMILES: COc1cccc(C=C2N=C(c3ccccc3)N(n3c(-c4ccccc4)nc4ccccc4c3=O)C2=O)c1
- GI50 [1]: 38.7 µM (inactive)
- GI50 [2]: 43.2 µM (inactive)
- GI50 [3]: 63.2 µM (inactive)
- GI50 [4]: 30.3 µM (inactive)
- GI50 [5]: 62.5 µM (inactive)
- GI50 [6]: 26.5 µM (inactive)
- GI50 [7]: > 100 µM (inactive)
- GI50 [8]: 26.2 µM (inactive)
- GI50 [9]: 34.8 µM (inactive)
- GI50 [10]: 52 µM (inactive)
- GI50 [11]: 71.9 µM (inactive)
- GI50 [12]: 48.2 µM (inactive)
- GI50 [13]: 57.8 µM (inactive)
- GI50 [14]: 56.4 µM (inactive)
- GI50 [15]: 57.4 µM (inactive)
- GI50 [16]: 41.2 µM (inactive)
- GI50 [17]: 54 µM (inactive)
- GI50 [18]: 54.3 µM
- GI50 [19]: 74.3 µM (inactive)
- GI50 [20]: 43.7 µM (inactive)
- GI50 [21]: 44.5 µM (inactive)
- GI50 [22]: 64.6 µM (inactive)
- GI50 [23]: 40.9 µM (inactive)
- GI50 [24]: 37.9 µM (inactive)
- GI50 [25]: 40.1 µM (inactive)
- GI50 [26]: 18.3 µM (inactive)
- GI50 [27]: 43.6 µM (inactive)
- GI50 [28]: 46 µM (inactive)
- GI50 [29]: 85.1 µM (inactive)
- GI50 [30]: 40.2 µM (inactive)
- GI50 [31]: > 100 µM (inactive)
- GI50 [32]: 64.6 µM (inactive)
- GI50 [33]: 33.5 µM (inactive)
- GI50 [34]: 83.8 µM (inactive)
- GI50 [35]: 68.9 µM (inactive)
- GI50 [36]: > 100 µM (inactive)
- GI50 [37]: 57.9 µM (inactive)
- GI50 [38]: 67.9 µM (inactive)
- GI50 [39]: > 100 µM (inactive)
- GI50 [40]: 44.4 µM (inactive)
- GI50 [41]: 45.1 µM (inactive)
- GI50 [42]: 25.1 µM (inactive)
- GI50 [43]: 48.3 µM (inactive)
- GI50 [44]: 35.2 µM (inactive)
- GI50 [45]: 42.3 µM (inactive)
- GI50 [46]: 41.2 µM (inactive)
- GI50 [47]: 30.3 µM (inactive)
- GI50 [48]: 30.1 µM (inactive)
- GI50 [49]: > 100 µM (inactive)
- GI50 [50]: > 100 µM (inactive)
- GI50 [51]: 83.4 µM (inactive)

SMILES: C[N+](C)([O-])CCCNc1ccnc2cccc([N+](=O)[O-])c12
- GI50 [1]: 31.6 µM (inactive)
- GI50 [2]: 22 µM (inactive)
- GI50 [3]: 72.6 µM (inactive)
- GI50 [52]: > 100 µM (inactive)
- GI50 [4]: 20.2 µM (inactive)
- GI50 [5]: 28.2 µM (inactive)
- GI50 [6]: 40 µM (inactive)
- GI50 [7]: 47.1 µM (inactive)
- GI50 [8]: 31.3 µM (inactive)
- GI50 [9]: 16.1 µM (inactive)
- GI50 [10]: 27.4 µM (inactive)
- GI50 [11]: 34.6 µM (inactive)
- GI50 [12]: 21.1 µM (inactive)
- GI50 [13]: 47.1 µM (inactive)
- GI50 [14]: 27 µM (inactive)
- GI50 [15]: 92.7 µM (inactive)
- GI50 [53]: 20.7 µM (inactive)
- GI50 [54]: 34.8 µM (inactive)
- GI50 [16]: 45.8 µM (inactive)
- GI50 [17]: 20.7 µM (inactive)
- GI50 [18]: 24.2 µM
- GI50 [19]: 31.1 µM (inactive)
- GI50 [20]: 47.4 µM (inactive)
- GI50 [21]: 81.3 µM (inactive)
- GI50 [55]: 20.5 µM (inactive)
- GI50 [56]: 18.7 µM (inactive)
- GI50 [22]: > 100 µM (inactive)
- GI50 [23]: 32.9 µM (inactive)
- GI50 [24]: 33 µM (inactive)
- GI50 [25]: 46.5 µM (inactive)
- GI50 [26]: 14.2 µM (inactive)
- GI50 [27]: > 100 µM (inactive)
- GI50 [28]: 28.4 µM (inactive)
- GI50 [29]: 83 µM (inactive)
- GI50 [30]: 21.5 µM (inactive)
- GI50 [31]: 41.9 µM (inactive)
- GI50 [32]: 27.3 µM (inactive)
- GI50 [33]: 34.2 µM (inactive)
- GI50 [34]: 20.9 µM (inactive)
- GI50 [35]: 38.5 µM (inactive)
- GI50 [36]: 28.1 µM (inactive)
- GI50 [37]: 53.5 µM (inactive)
- GI50 [57]: 19.8 µM (inactive)
- GI50 [38]: 51.3 µM (inactive)
- GI50 [39]: 24.9 µM (inactive)
- GI50 [40]: 39.2 µM (inactive)
- GI50 [41]: 37.7 µM (inactive)
- GI50 [42]: 20.2 µM (inactive)
- GI50 [43]: 30.6 µM (inactive)
- GI50 [44]: 15.5 µM (inactive)
- GI50 [45]: 33.1 µM (inactive)
- GI50 [46]: 44.1 µM (inactive)
- GI50 [47]: 45.8 µM (inactive)
- GI50 [48]: 46 µM (inactive)
- GI50 [49]: 46.2 µM (inactive)
- GI50 [50]: 80.7 µM (inactive)
- GI50 [51]: > 100 µM (inactive)
